From paper PMC5601486, “Identification of 4-phenylquinolin-2(1H)-one as a specific allosteric inhibitor of Akt” (Scientific Reports, 2017)
“Also recorded” adds a separate entry of the source.

Assays:
HUNK = assay: KINOMEscan; conditions: 50000 nM
Experimental: KINOMEscan™ selectivity screen
(§1) Briefly, Kinase-tagged T7 phage strains were grown in parallel in an E. coli host derived from the BL21 strain. E. coli were grown to log-phase and infected with T7 phage from a frozen stock and incubated with shaking at 32°C until lysis (90-150 minutes). The kinases were produced in HEK-293 cells and subsequently tagged with DNA for qPCR detection. Streptavidin-coated magnetic beads were treated with biotinylated small molecule ligands to generate affinity resins for kinase
(§2) inhibitor or DMSO control was performed in polypropylene 384-well plates for 1 hr at room temperature. After wash with PBS buffer containing 0.05% Tween 20, the beads were incubated in elution buffer (PBS containing 0.05 % Tween 20 and 0.5 μM non-biotinylated affinity ligand) for 30 minutes at room temperature. The kinase concentration in the eluates was measured by qPCR.

PIP5K2C = assay: KINOMEscan; conditions: 50000 nM
Experimental: KINOMEscan™ selectivity screen
as §1, §2

FRK = assay: KINOMEscan; conditions: 50000 nM
Experimental: KINOMEscan™ selectivity screen
(§3) The assay was perfor med at DiscoveRx Corporation according the methods published previously5. Briefly, Kinase-tagged T7 phage strains were grown in parallel in an E. coli host derived from the BL21 strain. E. coli were grown to log-phase and infected with T7 phage from a frozen stock and incubated with shaking at 32°C until lysis (90-150 minutes). The kinases were produced in HEK-293 cells and subsequently tagged with DNA for qPCR detection. Streptavidin-coated magnetic beads were treated with biotinylated small molecule ligands to generate affinity resins for kinase
as §2

NEK2 = assay: KINOMEscan; conditions: 50000 nM
Experimental: KINOMEscan™ selectivity screen
as §3, §2

BRAF(V600E) = assay: KINOMEscan; conditions: 50000 nM
Experimental: KINOMEscan™ selectivity screen
as §3, §2

BMPR1A = assay: KINOMEscan; conditions: 50000 nM
Experimental: KINOMEscan™ selectivity screen
as §3, §2

CAMK2D = assay: KINOMEscan; conditions: 50000 nM
Experimental: KINOMEscan™ selectivity screen
as §1, §2

FGFR4 = assay: KINOMEscan; conditions: 50000 nM
Experimental: KINOMEscan™ selectivity screen
(§4) The assay was perfor med at DiscoveRx Corporation according the methods published previously5. […] The kinases were produced in HEK-293 cells and subsequently tagged with DNA for qPCR detection. Streptavidin-coated magnetic beads were treated with biotinylated small molecule ligands to generate affinity resins for kinase
as §2

ROS1 = assay: KINOMEscan; conditions: 50000 nM
Experimental: KINOMEscan™ selectivity screen
as §3, §2

BRSK1 = assay: KINOMEscan; conditions: 50000 nM
Experimental: KINOMEscan™ selectivity screen
as §3, §2

PIK3CD = assay: KINOMEscan; conditions: 50000 nM
Experimental: KINOMEscan™ selectivity screen
as §3, §2

ALK = assay: KINOMEscan; conditions: 50000 nM
Experimental: KINOMEscan™ selectivity screen
as §3, §2

BIKE = assay: KINOMEscan; conditions: 50000 nM
Experimental: KINOMEscan™ selectivity screen
as §4, §2

FAK = assay: KINOMEscan; conditions: 50000 nM
Experimental: KINOMEscan™ selectivity screen
as §3, §2

Akt S473 phosphorylation = assay: pS473-Akt HTRF assay; assay type: cell-based, Mouse
Experimental: Neuro 2A cells were seeded (4,000 cells/well) in 4 µL of DMEM with 0.5% FBS and 1x Penicillin/Streptomycin in white solid bottom tissue-culture treated 1536-well plates (Greiner, 789173-F) with MultiDrop Combi Dispenser (Thermo Scientific). The cells were incubated for 24 h at 37 °C, 5% CO2, 95% humidity. Twenty-three nL of tested compounds were transferred to each well with an automated pin-tool station (Kalypsys). Following incubation for 15 min at 37 °C, 0.5 µL IGF (500 ng/mL of final concentration) was added and incubated for additional 40 min at 37 °C. After the addition of 1.5 µL 4x lysis buffer and 15-min incubation at room temperature (25 °C), 2 µL of HTRF® conjugated antibodies (fluorophore d2 conjugated anti-Akt monoclonal antibody and Europium^3+ cryptate-labeled anti-pS473-Akt monoclonal antibody, obtained from CisBio, 1:80 dilution) were added with BioRAPTR FRD™ (Beckman Coulter). The plates were incubated at room temperature for 20 h. The signal was measured by EnVision Multilabel Plate Reader (PerkinElmer) with excitation at 330 nm, emission at 620 nm (donor) and 665 nm (acceptor). Results were calculated and analyzed in a format of the ratio 665 nm/620 nm multiplied by 10^4.
Relative activity was calculated by normalizing each HTRF signal from each sample well to the mean HTRF signal from the DMSO-only control wells.
The Library of Pharmacologically Active Compounds (LOPAC, 1280 compounds) and the Molecular Library Small Molecular Repository Library (MLSMR, 373,868 compounds) were obtained from Sigma-Aldrich.
Quantitative HTS (qHTS) and curve response class classification
The qHTS screen was performed as described previously1. Each compound was titrated in seven concentrations. The final concentrations of the compounds assayed ranged from 4.9 nM to 76.6 µM. The curve response classifications (CRC), which can be used to depict potency, efficacy and reliability of the data, and to estimate an IC50 value, were determined by a customized software2. […]
Sigma-Aldrich) and the basal response (0% inhibition) was set to the DMSO control.
Efficacy of a compound refers to the highest response normalized to the maximal response of LY. The CRCs were grouped into 4 categories. Class 1 are well-fit and have both upper and lower asymptotes with efficacy greater than 30%
(Class1.1, >80% efficacy; Class 1.2; 30-80% efficacy). Class 2 are incomplete with only one asy mptote (Class 2.1, > 80% efficacy; Class 2.2, 30-80% % efficacy). Class 3 display activity only at the highest concentrations and efficacy >30%. Class 4 are with low efficacy (<30%) or no response and considered inactive3.

SNARK = assay: KINOMEscan; conditions: 50000 nM
Experimental: KINOMEscan™ selectivity screen
as §3, §2

[1] = system: RSK3(Kin.Dom.1-N-terminal); assay: KINOMEscan; conditions: 50000 nM
Experimental: KINOMEscan™ selectivity screen
as §1, §2

CHEK2 = assay: KINOMEscan; conditions: 50000 nM
Experimental: KINOMEscan™ selectivity screen
as §1, §2

MST1 = assay: KINOMEscan; conditions: 50000 nM
Experimental: KINOMEscan™ selectivity screen
as §3, §2

PIK3CA(E545A) = assay: KINOMEscan; conditions: 50000 nM
Experimental: KINOMEscan™ selectivity screen
as §1, §2

LRRK2 = assay: KINOMEscan; conditions: 50000 nM
Experimental: KINOMEscan™ selectivity screen
as §3, §2

p38-gamma = assay: KINOMEscan; conditions: 50000 nM
Experimental: KINOMEscan™ selectivity screen
as §1, §2

EGFR = assay: KINOMEscan; conditions: 50000 nM
Experimental: KINOMEscan™ selectivity screen
as §3, §2

TGFBR2 = assay: KINOMEscan; conditions: 50000 nM
Experimental: KINOMEscan™ selectivity screen
as §3, §2

DMPK = assay: KINOMEscan; conditions: 50000 nM
Experimental: KINOMEscan™ selectivity screen
as §3, §2

PDGFRB = assay: KINOMEscan; conditions: 50000 nM
Experimental: KINOMEscan™ selectivity screen
as §1, §2

BRAF = assay: KINOMEscan; conditions: 50000 nM
Experimental: KINOMEscan™ selectivity screen
as §3, §2

EPHB2 = assay: KINOMEscan; conditions: 50000 nM
Experimental: KINOMEscan™ selectivity screen
as §3, §2

activated Akt = assay: Substrate peptide phosphorylation by activated Akt (ELISA-based); assay type: biochemical; conditions: 20 µM G7, ATP and substrate peptide
EPHA6 = assay: KINOMEscan; conditions: 50000 nM
Experimental: KINOMEscan™ selectivity screen
as §1, §2

[2] = system: RPS6KA4(Kin.Dom.1-N-terminal); assay: KINOMEscan; conditions: 50000 nM
Experimental: KINOMEscan™ selectivity screen
as §1, §2

PKN1 = assay: KINOMEscan; conditions: 50000 nM
Experimental: KINOMEscan™ selectivity screen
as §3, §2

LIMK1 = assay: KINOMEscan; conditions: 50000 nM
Experimental: KINOMEscan™ selectivity screen
as §3, §2

KIT(V559D,V654A) = assay: KINOMEscan; conditions: 50000 nM
Experimental: KINOMEscan™ selectivity screen
as §3, §2

Oc1cc(-c2ccccc2)c2ccccc2n1 [G7, 4-phenylquinolin-2(1H)-one]
Percent Control (HUNK): 70%
Percent Control (PIP5K2C): 83%
Percent Control (FRK): 89%
Percent Control (NEK2): 77%
Percent Control (BRAF(V600E)): 71%
Percent Control (BMPR1A): 100%
Percent Control (CAMK2D): 79%
Percent Control (FGFR4): 96%
Percent Control (ROS1): 98%
Percent Control (BRSK1): 72%
Percent Control (PIK3CD): 100%
Percent Control (ALK): 95%
Percent Control (BIKE): 52%
Percent Control (FAK): 93%
IC50 (Akt S473 phosphorylation; Mus musculus, N2a, Neuro 2A cells, inhibitor 15 min before IGF, read-out: IC50): ~20 µM
maximum inhibition (Akt S473 phosphorylation; compared to that of 100 µM LY): 50%
Percent Control (SNARK): 45%
Percent Control [1]: 69%
Percent Control (CHEK2): 100%
Percent Control (MST1): 90%
Percent Control (PIK3CA(E545A)): 100%
Percent Control (LRRK2): 55%
Percent Control (p38-gamma): 100%
Percent Control (EGFR): 89%
Percent Control (TGFBR2): 100%
Percent Control (DMPK): 100%
Percent Control (PDGFRB): 23%
Percent Control (BRAF): 84%
Percent Control (EPHB2): 93%
effect on phosphorylation capability of activated Akt (activated Akt): No effects; also recorded: only negligible change
Percent Control (EPHA6): 88%
Percent Control [2]: 61%
Percent Control (PKN1): 89%
Percent Control (LIMK1): 100%
Percent Control (KIT(V559D,V654A)): 48%
